Experimental findings from ChEMBL document CHEMBL1201862, “PubChem BioAssay data set” (2004) are described below.

The structures appear in SMILES notation.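 Five concentrations, 48 hours, 96-well plates. Here, GI50 denotes the concentration required for 50% inhibition of growth.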 Calls of active or inactive are those of the source. Cut-off read from the data, not from the text of the source: active = GI50 up to about 1.1 µM and inactive = higher. Square brackets hold non-standard residues; d marks the D form. Peptide text beside a SMILES is read from it. * marks the point of attachment. ξ: configuration not given here. ξF = NC(Cc1ccccc1)C(=O)O; Cbz = O=C(OCc1ccccc1)*; Aib = CC(C)(N)C(=O)O Some results are limits rather than exact numbers.

Among the test systems are BT-549; DMS-114; HOP-18; DLD-1; M19-MEL; DMS-273; LXFL 529; XF498.
Experiment in all cases: NCI-60 cell line screen, 48 h

With `O=C1CCC(c2ccccc2)(c2ccccc2)CC1`, the GI50 in the test with BT-549 was 83.2 µM (inactive).
In the case of `CCOC(=O)c1c2c(n(-c3ccc(OC)cc3)c1C)C(=O)C(=O)c1ccccc1-2`, the GI50 in the test on BT-549 was 2.02 µM (inactive).
As to `Nc1ncnc2c1ccn2C1OC2COP(=O)(O)OC2C1O` (stereo not given), the GI50 in the test on BT-549 was 0.482 µM (active).
On the same count and under the same terms, under `CN(C)CCCn1c(Cc2ccccc2)nc2cc(C(F)(F)F)ccc21` stands 29.2 µM (inactive); under `O=C(O)c1ccc(C2SCc3nc4ccccc4n32)cc1` (stereo not given), > 100 µM (inactive).
Take `C=CC(C)(C)n1cc(C2=C(O)C(=O)C(c3cn(C(C)(C)C=C)c4ccccc34)=C(O)C2=O)c2ccccc21`: the GI50 with BT-549 is 1.01 µM (active).
For the compound `Cc1cc(S(=O)(=O)O)c(NC(=O)c2oc3cc(O)ccc3c(=O)c2C)cc1Cl`, the GI50 in the test on BT-549 was > 100 µM (inactive).
The same measure, in the same setting: to `Cn1c2c(c3c(=O)[nH]ncc31)CCc1ccccc1-2` belongs 23.8 µM (inactive).
The same measure, in the same setting: to `O=c1cc(-c2ccccc2)[nH]c2ccc(S)cc12` belongs 23.5 µM (inactive); to `Cc1ccc(/C=C2/N/C(=N\N=C/C(O)C(O)C(O)CO)NC2=O)cc1` (stereo not given), > 100 µM (inactive).
`CCOC(=O)C1=C(O)C(=O)c2cc(OC)ccc2C1=O`: the GI50 in the test on DMS-114 was > 100 µM (inactive); in the test on HOP-18, 4.51 µM (inactive); in the test on DLD-1, > 100 µM (inactive); in the test with M19-MEL, 20.7 µM (inactive); in the test with DMS-273, > 100 µM (inactive).
With `CC(=O)Nc1ccc(C(=O)NN2C(=O)C(Cl)C2c2ccc([N+](=O)[O-])cc2)cc1` (stereo not given), the GI50 in the test on LXFL 529, in the test with XF498, in the test on M19-MEL and in the test with DMS-273 was > 100 µM (inactive) throughout.
Take `NC(CCC(=O)NC(CSC(=O)N(O)c1ccccc1)C(=O)NCC(=O)O)C(=O)O` (stereo not given): the GI50 in the test on DMS-114, with LXFL 529, in the test on DLD-1, with M19-MEL and with DMS-273 was > 1000 µM (inactive) throughout.
In the case of `COc1ccc(/N=N/C(=N\c2ccc(Cl)cc2)c2ccc(N(CCC#N)CCC#N)cc2)cc1`, in the test with BT-549, the GI50 is 12.6 µM (inactive).
Still for that read-out and setting: under `O=C1CSC(c2ccc(Cl)cc2)N1c1ccc(-n2c(-c3ccccc3)nc3ccccc3c2=O)cc1` (stereo not given) stands > 100 µM (inactive); under `CC(=O)OC1[C@@H](OC(C)=O)CN(OCc2ccccc2)C[C@H]1OC(C)=O` (stereo not given in full), > 100 µM (inactive).
On the same count and under the same terms, to `CC(C)(C)/C(O)=C\c1nc2cc(F)c(F)cc2[nH]c1=O` belongs > 100 µM (inactive); to `Cn1c2ccccc2c(=NNc2ccc(C(=O)O)cc2)c2ccccc21`, 21.6 µM (inactive).
Regarding `CCOC(=O)C1C(=O)C(=O)N2CCc3c([nH]c4ccccc34)C12` (stereo not given), the GI50 in the test on DMS-114, in the test with LXFL 529, with DLD-1 and in the test with M19-MEL was > 100 µM (inactive) throughout.
Consider `CC[C@@]1(O)C(=O)OCc2c1cc1n(c2=O)Cc2c-1nc1ccccc1c2/C=N\NC(=O)CN`, for which, in the test with BT-549, the GI50 is 0.627 µM (active).
Still for that read-out and setting: under `O=C(O)C12CCC(CC1=O)C2` (stereo not given) stands > 100 µM (inactive); under `COc1cc2c(cc1OC)C1C=NC(C2)c2cc(OC)c(OC)cc21` (stereo not given), 81.8 µM (inactive).
Regarding `Cc1nc2c(Cl)cc(Cl)cc2c2c1CCO2`, in the test with BT-549, the GI50 is > 100 µM (inactive).
For `O=c1c2ncn(C3CC(O)C(CO)O3)c2nnn1Cc1ccccc1[N+](=O)[O-]` (stereo not given), the GI50 in the test on BT-549 is > 100 µM (inactive).
Consider `C[N+]1(C)C/C(=C\c2ccc(O)cc2)C(=O)/C(=C/c2ccc(O)cc2)C1`, for which the GI50 with DMS-114 is 21.4 µM (inactive); with LXFL 529, 60.5 µM (inactive); with HOP-18 it was > 100 µM (inactive); with DLD-1 it was 49.7 µM (inactive); in the test with M19-MEL, > 100 µM (inactive); in the test on DMS-273, 53 µM (inactive).
With `CC(=O)c1ccc2c(c1)N(CCCN1CCN(CCO)CC1)c1ccccc1C2`, in the test on BT-549, the GI50 was 14.7 µM (inactive).
As to `CC1CC(N2CCOCC2)=Nc2ccccc2N1C` (stereo not given), the GI50 with BT-549 was > 100 µM (inactive).
The same measure, in the same setting: to `CC(C)OC(=O)NNc1cc(Cl)ccc1Cl` belongs 64.3 µM (inactive).
As for `COc1ccc(CNc2cnc3cc(N)ccc3n2)cc1OC`, the GI50 with DMS-114, in the test on DLD-1, in the test with M19-MEL and in the test on DMS-273 was > 100 µM (inactive) in each case.
Consider `C=CCN(c1cc(OC)c2[nH]c(C(=O)OCC)c(C)c2c1[N+](=O)[O-])S(C)(=O)=O`, for which the GI50 with BT-549 was 22.1 µM (inactive).
Still for that read-out and setting: under `O=C1C2C(c3ccccc3)NC(c3ccccc3)C1C(c1ccccc1)NC2c1ccccc1` (stereo not given) stands > 100 µM (inactive); under `N#CC(C#N)=c1c2ccccc2c(=C(C#N)C#N)c2ccccc12`, 23 µM (inactive); under `O=C(NC1(c2cc3ccccc3s2)CCCCC1)C1CCC1`, > 100 µM (inactive).
As to `CC(C)(C)C#COC(=O)c1ccccc1`, the GI50 in the test with DMS-114, in the test on LXFL 529, in the test on DLD-1 and in the test on M19-MEL was > 100 µM (inactive) each time.
With `CCOC(=O)C(Cl)(Cl)/S(=N\S(=O)(=O)c1ccccc1)NC(=O)c1ccccc1` (stereo not given), the GI50 in the test on BT-549 was > 100 µM (inactive).
On to `CC(C)CCCC(C)[C@H]1CC[C@H]2N/C(=N/c3ccccc3)CCC[C@]12C` (stereo not given in full), for which, in the test with BT-549, the GI50 was 2.9 µM (inactive).
On the same count and under the same terms, to `O=c1cc(-c2ccccc2)[nH]c2ccc(N3CCCC3)cc12` belongs > 100 µM (inactive).
In the case of `O=C1OC(c2ccccc2)=N/C1=C\c1ccc(Br)cc1`, the GI50 in the test on BT-549 is > 100 µM (inactive).
With `O=C(Nc1ccc(Cl)cc1)[C-](C(=O)c1ccc(Br)cc1)[n+]1cccc(-c2ccc(Cl)cc2)n1`, the GI50 with BT-549 is 2.54 µM (inactive).
As to `C=CCN1C(=O)CS/C1=N\NC(=O)CSc1nc2ccccc2c(=O)n1CC`, in the test with BT-549, the GI50 was > 100 µM (inactive).
Still for that read-out and setting: to `Cc1nn(-c2ccccn2)c2c1C(SC#N)=C(C=O)CC2` belongs 18.5 µM (inactive); to `OCCCSc1ccccc1SCCCO`, > 100 µM (inactive); to `Cc1ccc(C)n2c1nc1ccccc12`, > 100 µM (inactive).
As for `Cn1c(=O)c2[nH]c(N/N=C3/SCC(=O)N3Cc3ccccc3)nc2n(C)c1=O`, the GI50 in the test with BT-549 is > 100 µM (inactive).
For `Cc1c2cc[n+](C)cc2c(C)c2c1[nH]c1ccc(Oc3ccccc3)cc12`, the GI50 in the test on LXFL 529 is 0.282 µM (active); with DLD-1, 0.906 µM (active); in the test on DMS-273 it was 0.596 µM (active).
On to `CC(C)C(C/C=C1\CC(CO)(COC(=O)C2CCCCC2)OC1=O)C(C)C` (stereo not given), for which the GI50 with BT-549 is 23.7 µM (inactive).
As for `c1ccc2nc(-c3ccc4c(c3)OCO4)ccc2c1`, the figures for the GI50 with DMS-114, in the test with LXFL 529 and with DMS-273 were 23.4 µM (inactive), 22.5 µM (inactive) and 26.2 µM (inactive), respectively.
Consider `CC(C)(NC(=O)OCc1ccccc1)C(=O)NC(Cc1ccccc1)C(=O)O` (stereo not given) (Cbz-[Aib]-[ξF]-OH), for which the GI50 with BT-549 was > 100 µM (inactive).
As to `c1ccc(CSSSCc2ccccc2)cc1` [DIBENZYL TRISULFIDE], in the test with BT-549, the GI50 was 3.27 µM (inactive).
Still for that read-out and setting: to `C=C1C(=O)O[C@H]2[C@H]1[C@H](OC(=O)/C(C)=C\C)C[C@]1(CO1)[C@@H]1[C@H](OC(C)=O)C=C(C)[C@]21O` [EUPAROTIN ACETATE] belongs 8.13 µM (inactive).
For `C[C@]12CC[C@H]3[C@@H](CC[C@]4(O)C[C@@H](O)CC[C@]34C=O)[C@@]1(O)CC[C@@H]2C1=CC(=O)OC1` [STROPHANTHIDIN], the GI50 with BT-549 was 0.355 µM (active).
